Our source for the EC50 and IC50 values is patent US20100240657A1, “CHEMICAL COMPOUNDS” (BOEHRINGER INGELHEIM INTERNATIONAL GMBH, priority 2007, published 2010).

Test [1] relates to A375 cells. The test can be described thus: Inhibition of proliferation on cultivated human melanoma cells (A375), AlamarBlue. Conditions: A-375, A375, method as for SK-MEL28, read-out: EC50 value, cellular A375 assay. The format is cell-based. The method, then:
(§1) To measure proliferation on cultivated human tumour cells, cells of melanoma cell line SK-MEL28 [American Type Culture Collection (ATCC)] are cultivated in MEM medium, supplemented with 10% foetal calf serum, 2% sodium bicarbonate, 1 mM sodium pyruvate, 1% non-essential amino acids (e.g. from Cambrex, #BE13-114E) and 2 mM glutamine. SK-MEL28 cells are placed in 96-well flat-bottomed plates at a density of 2500 cells per well in supplemented MEM medium (see above) and incubated overnight in an incubator (at 37° C. and 5% CO2). The active substances are added to the cells in various concentrations so as to cover a range of concentrations from 50 μM to 3.2 nM. If necessary the initial concentration is changed from 50 μM to 10 μM or 2 μM and further dilution (to 0.6 nM or 0.12 nM) is carried out accordingly. After a further 72 hours incubation, 20 μl AlamarBlue reagent (Serotec Ltd., #BUF012B) is added to each well, and the cells are incubated for a further 3-6 hours. The colour change of the AlamarBlue reagent is determined in a fluorescence spectrophotometer (e.g. Gemini, Molecular Devices). EC50 values are calculated using the software programme (GraphPadPrizm).
To measure proliferation on cultivated human tumour cells, cells of melanoma cell line A375 [American Type Culture Collection (ATCC)] are cultivated in MEM medium, supplemented with 10% foetal calf serum and 2% sodium bicarbonate. Test substances are tested on A375 cells according to the method described for SK-MEL28 cells (see above).
Background: Alamar Blue is a resazurin reagent that responds to reducing activity.

Test [2] concerns the target B-Raf (V600E) (Homo sapiens, UniProt P15056, V600E). Kind of test: Kinase test B-Raf (V600E). The class given is biochemical. The settings on record: 250 μM ATP, MEK1 substrate; read-out: IC50 value, B-Raf (V600E) inhibition test. The method, then: In a dilution series, 10 μL aliquots of test substance solution are placed in a multiwell plate. The dilution series is selected so as to cover a range of concentrations from 2 μM to 0.128 or 0.017 nM. If necessary the initial concentration is changed from 2 μM to 10 or 0.4 μM and further dilution is carried out accordingly. The final concentration of DMSO is 5%. 10 μL of the B-Raf (V600E) kinase solution are pipetted in (containing 2.5 ng B-Raf (V600E)-kinase in 20 mM TrisHCl pH 7.5, 0.1 mM EDTA, 0.1 mM EGTA, 0.286 mM sodium orthovanadate, 10% glycerol, 1 mg/mL bovine serum albumin, 1 mM dithiothreitol) and incubated for 1 h at RT with agitation. The kinase reaction is started by the addition of 20 μL ATP solution [final concentration: 250 μM ATP, 30 mM Tris-HCl pH 7.5, 0.02% Brij, 0.2 mM sodium-orthovanadate, 10 mM magnesium acetate, phosphatase cocktail (Sigma, #P2850, dilution recommended by the manufacturer), 0.1 mM EGTA] and 10 μL MEK1 solution [containing 50 ng biotinylated MEK1 (prepared from purified MEK1 according to standard procedure, e.g. with reagent EZ-Link Sulfo-NHS-LC-Biotin, Pierce, #21335) in 50 mM Hepes pH 7.5, 150 mM NaCl, 10% glycerol, 0.02% Brij-35, 0.2 mM PMSF, 0.2 mM benzamidine] and carried out for 60 min at RT with constant agitation. The reaction is stopped by the addition of 12 μL of a 100 mM EDTA solution and incubated for a further 5 min. 55 μL of the reaction solution are transferred into a streptavidine-coated plate (e.g. Streptawell HighBond, Roche, #11989685001) and shaken gently for 1 h at RT, in order to bind biotinylated MEK1 to the plate. After removal of the liquid the plate is washed five times with 200 μL of 1×PBS, and 100 μL solution of primary antibody plus europium-labelled secondary antibody [Anti Phospho-MEK (Ser217/221), Cell Signaling #9121 and Eu-N1 labeled goat-anti-rabbit antibody, Perkin Elmer #AD01015], the primary antibody is diluted 1:2000 and the secondary antibody is added to 0.4-0.5 μg/mL diluted in Delfia Assay Buffer (Perkin Elmer, #1244-111). After 1 h agitation at RT the solution is poured away and washed five times with 200 μL Delfia Wash Buffer (Perkin Elmer #4010-00101244-114). After the addition of 200 μL Enhancement Solution (Perkin Elmer #4001-00101244-105) the preparation is shaken for 10 min at RT and then measured in a Wallac Victor using the programme “Delfia Time Resolved Fluorescence (Europium)”.
IC50 values are determined from these dosage-activity curves using the software programme (GraphPadPrizm).

The test system of test [3] is SK-MEL28 cells. Kind of test: Inhibition of proliferation on cultivated human melanoma cells (SK-MEL28), AlamarBlue. The class given is cell-based. Conditions: SK-MEL-28, SK-MEL28, 72 hours incubation, read-out: EC50 value, cellular SK-MEL28 assay. The method, then: as §1

Molecules are shown by their SMILES.

Sequence of B-Raf (V600E) (P15056 whole entry V600E): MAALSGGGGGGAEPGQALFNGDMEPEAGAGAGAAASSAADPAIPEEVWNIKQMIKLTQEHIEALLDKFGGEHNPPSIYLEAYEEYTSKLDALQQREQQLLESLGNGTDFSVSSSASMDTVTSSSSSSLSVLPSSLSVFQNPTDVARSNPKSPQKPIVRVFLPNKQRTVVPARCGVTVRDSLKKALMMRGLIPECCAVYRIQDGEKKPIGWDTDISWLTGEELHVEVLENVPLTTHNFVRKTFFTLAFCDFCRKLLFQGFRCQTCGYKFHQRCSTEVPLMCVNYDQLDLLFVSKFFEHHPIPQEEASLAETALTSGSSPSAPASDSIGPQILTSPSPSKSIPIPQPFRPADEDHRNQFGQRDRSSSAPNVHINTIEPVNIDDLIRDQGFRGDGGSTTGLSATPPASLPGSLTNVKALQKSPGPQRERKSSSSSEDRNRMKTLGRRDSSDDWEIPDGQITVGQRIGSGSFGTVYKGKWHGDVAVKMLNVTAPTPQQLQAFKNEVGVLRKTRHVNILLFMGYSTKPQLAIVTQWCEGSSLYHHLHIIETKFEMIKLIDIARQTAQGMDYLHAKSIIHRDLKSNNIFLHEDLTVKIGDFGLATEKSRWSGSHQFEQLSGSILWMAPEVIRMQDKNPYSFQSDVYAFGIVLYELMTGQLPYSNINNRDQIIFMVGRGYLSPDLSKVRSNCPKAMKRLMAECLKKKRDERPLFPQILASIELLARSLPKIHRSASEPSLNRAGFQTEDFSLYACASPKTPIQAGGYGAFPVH

`Cc1ccc(C(=O)Nc2ccc(Cl)c(C(F)(F)F)c2)cc1-c1noc(-c2cccnc2)n1` [Example 2b]: the EC50 (in general, the midpoint of the concentration-response curve) in test [1] is less than 5 µM. The half-inhibitory concentration (IC50) (in general, the concentration needed to halve the response being measured) in test [2] was less than 0.5 µM.

Take `Cc1ccc(C(=O)Nc2cc(C(C)(C)C)on2)cc1-c1c[nH]c(-c2cccnc2)n1` [Example 6c]: the concentration for a half-maximal effect (EC50) in test [3] and in test [1] was less than 5 µM throughout.

On to `COC(=O)c1cncc(-n2cc(-c3cc(C(=O)Nc4cc(C(C)(C)C)cc(NS(C)(=O)=O)c4OC)ccc3C)nn2)c1` [Example 1a], for which the EC50 in test [3] and in test [1] was less than 5 µM each time.

Take `Cc1ccc(C(=O)Nc2ccc(Cl)c(C(F)(F)F)c2)cc1-c1csc(-c2cccnc2)n1` [Example 5b-b]: the IC50 in test [2] was less than 0.5 µM.

For the molecule `Cc1ccc(C(=O)Nc2cc(C(C)(C)C)n[nH]2)cc1-c1csc(-c2cccnc2)n1` [Example 5b-a], the EC50 in test [3] and in test [1] was less than 5 µM in each case. Also, the IC50 in test [2] was less than 0.5 µM.

As to `COc1c(NC(=O)c2ccc(C)c(-c3noc(-c4cccnc4)n3)c2)cc(C(C)(C)C)cc1NS(C)(=O)=O` [Example 2a], the EC50 in test [1] is less than 5 µM. Moreover, the IC50 in test [2] was less than 0.5 µM.

`COc1c(NC(=O)c2ccc(C)c(-c3nc(-c4cccnc4)no3)c2)cc(C(C)(C)C)cc1NS(C)(=O)=O` [Example 3a]: the concentration giving a half-maximal response (EC50) in test [3] and in test [1] was less than 5 µM throughout. Also, the concentration for half-maximal inhibition (IC50) in test [2] was less than 0.5 µM.
